System: T1, P. ostreatus IBL-02 laccase
T1 construct: gene pox2
Settings: free (not immobilised) enzyme; ABTS varied 0.1-1 mM, so the printed unit mM is doubtful; standard assay malonate buffer pH 4.5, 25°C

SMILES: CCn1c(=NN=c2sc3cc(S(=O)(=O)O)ccc3n2CC)sc2cc(S(=O)(=O)O)ccc21 [ABTS, 2, 2′-azino-bis-3-ethylbenzothiazoline-6-sulfonic acid]
- Km: 33 mM

— article PMC3541985, “Improvement of Catalytic Efficiency, Thermo-stability and Dye Decolorization Capability of Pleurotus ostreatus IBL-02 laccase by Hydrophobic Sol Gel Entrapment” (Chemistry Central Journal, 2012)
